For assay [1], the system named is lymphocytic leukemia P388. Kind of assay: Lymphocytic leukemia P388 test (intraperitoneal administration). In kind it is in vivo, DBA/2 mice. The note with it: days 1, 5 and 9. The method, boiled down:
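DBA/2 mice, single sex, 5-6 per group, inoculated i.p. with 10^6 P388 leukemia cells. Compounds given i.p. at various doses on days 1, 5 and 9; survival followed 30 days, reporting median survival time and treated/control (T/C) survival ratio.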

For another assay, the system named is melanotic melanoma B16. Kind of assay: Melanotic Melanoma B16 test. The note with it: 25 mg./kg. i.p., days 1 through 9. It is filed as in vivo, C57BC/6 mice. The essentials: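 C57BC/6 mice (10 per group) were implanted i.p. with B16 melanoma homogenate, then dosed i.p. on days 1–9 at various doses.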

Data on one molecule can be found in patent US4526989A, “1,4-Bis (substituted-amino)-5,8-dihydroxy-anthraquinones and leuco bases thereof” (priority 1979, dated 1985).

As to `CN(C)CCCNc1ccc(NCCCN(C)C)c2c1C(=O)c1c(O)ccc(O)c1C2=O` [1,4-Bis[(3-dimethylaminopropyl)amino]-5,8-dihydroxyanthraquinone], the “Median Survival Time” value in assay [1] (12 mg./kg. i.p.) came to 15.0 days; in assay [1] (25 mg./kg. i.p.), 15.5 days; in assay [1] (50 mg./kg. i.p.) it was 15.5 days; with melanotic melanoma B16, 20.0 days. The response vs control in vivo at 12 mg/kg in assay [1] (Mus musculus, P388, ip, 12 mg./kg. i.p., efficacy ≥125%, read-out: T/C × 100) turned out to be 125%. The response vs control in vivo at 25 mg/kg in assay [1] (Mus musculus, P388, ip, 25 mg./kg. i.p., efficacy ≥125%, read-out: T/C × 100) was determined as 129%; in the assay with melanotic melanoma B16 (Mus musculus, ip, efficacy ≥125%, read-out: T/C × 100) it was 125%. Besides, in assay [1] (Mus musculus, P388, ip, 50 mg./kg. i.p., efficacy ≥125%, read-out: T/C × 100), the response vs control in vivo at 50 mg/kg is 129%.
